Results from US12473308B2, “Luminescent silafluorene and germafluorene compounds” (The Curators Of The University Of Missouri, priority 2019, dated 2025).
“Also recorded” adds a separate entry of the source.

Experiments:
[1] = Solvatochromism: emission in different solvents; format: physicochemical
Description: Solvents, like water and dichloromethane, greatly affect the fluorescence energy (i.e., color) of some molecules—this is called solvatochromism. Excited electrons may mobilize across the molecule more easily in these cases. For example, 2,7-bis(4-ethynylbenzaldehyde)-3,6-dimethoxysilafluorene emits green in ethanol, but blue in nonpolar solvents (FIGS. 23-24).

[2] = Solubility in DMSO and in aqueous solution; format: physicochemical; conditions: for solubility in aqueous solution: aqueous solutions / aqueous buffer, diluted from DMSO
Description: Studies have been conducted herein for a series of silafluorenes with a broad range of alkynyl substituent groups: 3Si, 4Si, 7Si, […], 9Si, and 11Si, and 13Si. […] This provides a tunability to the optical behavior that is useful for bioimaging.
This provides a tunability to the optical behavior that is useful for imaging (FIG. 40).

[3] = system: yeast cells (S. cerevisiae); experiment: Fluorescence confocal microscopy of yeast cells; format: cell-based; conditions: permeabilized with DMSO, 405 nm laser, 100×
Protocol: S. cerevisiae were stained with 2,7-bis(4-ethynylphenanthrene)-3,6-dimethoxy-9,9-diphenylsilafluorene, referred to as Si phenanthrene, for 1 hour, then imaged on a confocal microscope (FIGS. 35 and 36).
S. cerevisiae were stained with 2,7-bis(4-ethynylbenzaldehyde)-3,6-dimethoxy-9,9-diphenylsilafluorene, referred to as Si benzaldehyde, for 1 hour, then imaged on a confocal microscope (FIG. 37). Again, DMSO was used to permeabilize cells.

[4] = Fluorescence change upon addition of detergent Triton X-100; conditions: for spectral change when Triton X-100 is added: neutral detergent Triton X-100
Protocol: Non-denaturing detergents, common proxies for membranes and lipids, were added to each compound. […] Moreover, the degree of enhancement is very sensitive to the aggregation state of the detergent: enhancement is more dramatic at concentrations at which the detergents are known to form micellar aggregates (critical micelle concentration).
Detergents enhance fluorescence. Triton X-100 (TX100) was added to each metallafluorene at concentrations below and above TX-100's CMC (0.3 mM), and fluorescence was measured (FIGS. 31A, 31B, and 32).
Non-denaturing detergents, common proxies for membranes and lipids, were added to each compound. […] Moreover, the degree of enhancement is very sensitive to the aggregation state of the detergent: enhancement is more dramatic at concentrations at which the detergents are known to form micellar aggregates (i.e. the critical micelle concentration).

[5] = Absorption and emission in CH2Cl2 solution and in the solid-state; format: physicochemical
Description: (§1) These new compounds (3Si/3Ge through 8Si %8Ge) show a strong absorption band in CH2Cl2 solution in the region of 371-394 nm (log ε values ranged from 4.25-5.23) and emission maxima in the region of 401-452 nm. The quantum efficiencies determined from solution samples containing the silafluorenes 3Si-8Si were high (0.80-0.87) and the related germafluorenes 3Ge-8Ge had slightly lower values between 0.64-0.83. […] The solid-state quantum yields have been measured for several of the sila- and germafluorenes. The solid-state quantum yields for 7 compounds have been measured and the values range from 0.14 to 0.91 with the highest values for compounds 5Ge […] and 6Ge (0.81). Additional quantum yield measurements both in solution and in the solid-state are made for other compounds shown in Scheme 2 (FIG. 2).

[6] = Quantum yield in CH2Cl2 (DCM) solution; format: physicochemical
Description: as §1
The silafluorenes show intense fluorescence both in solution and in the solid-state (FIG. 11). The quantum yield range in CH2Cl2 solution is 0.80-0.89 for several silafluorenes studied to date.
(§2) Quantum yields were collected for these compounds in aqueous solution and in the presence of the aforementioned surfactants and the data are shown in Table 2. Quantum yields in the presence of surfactants are markedly higher than in their absence. In the presence of detergents, the quantum yield is recovered to near perfect quantum efficiency.

[7] = Quantum yield in aqueous solution (Tris) and in the presence of surfactants; format: physicochemical; conditions: for φTX (quantum yield): 0.6 mM TX-100; for φSBDS (quantum yield): 10 mM SDBS; for φCTAB (quantum yield): 20 mM CTAB; for φCHAPS (quantum yield): 25 mM CHAPS; for φSDS (quantum yield): 30 mM SDS; for φTris (quantum yield): aqueous solution, Tris, no surfactant
Protocol: as §2
(§3) The surfactants are 0.6 mM TX-100, 25 mM CHAPS, 20 mM CTAB, 30 mM SDS, and 10 mM SDBS. ExpiCHO cells were stained with 10 μM 3Si for 15 minutes. Experimental details include Gains: 762; Digital gains: 2.3; Pinhole: 1 AU; and 2% Laser intensity.

[8] = Solid-state quantum yield; format: physicochemical
Description: as §1

ExpiCHO cells = experiment: Fluorescence staining of CHO cells; format: cell-based; conditions: 10 μM, 15 minutes
Protocol: as §3

[9] = system: calf thymus (mixed sequence) DNA; experiment: Spectroscopic DNA binding study; conditions: aqueous buffer, calf thymus DNA added

Row | Structure (SMILES) | solubility in DMSO [2] | solubility in aqueous solution [2] | spectral change when Triton X-100 is added [4] | φDCM (quantum yield) [6] | φTX (quantum yield) [7] | φSBDS (quantum yield) [7] | φCTAB (quantum yield) [7] | φCHAPS (quantum yield) [7] | φSDS (quantum yield) [7] | φTris (quantum yield) [7] | further results
1 | COc1cc2c(cc1C#Cc1ccc(C=O)cc1)[Si](c1ccccc1)(c1ccccc1)c1cc(C#Cc3ccc(C=O)cc3)c(OC)cc1-2 [13Si, 2,7-bis(4-ethynylbenzaldehyde)-3,6-dimethoxy-9,9-diphenylsilafluorene] | low millimolar concentrations; also recorded: low micromolar concentrations | low micromolar concentrations | dramatic blue shifts and emission enhancements | – | – | – | – | – | – | – | emission λmax depending on the solvent ([1]; ethanol, dichloromethane, hexanes): 440-550 nm; emission colour ([1]; in ethanol): green; emission colour ([1]; in nonpolar solvents): blue; staining pattern in cells [3]: staining diffuse throughout the cell; emission enhancement upon the addition of detergent/membrane mimics (comparison) [4]: comparable
2 | FC(F)(F)c1ccc(C#Cc2cc[c]3c(c2)-c2cc(C#Cc4ccc(C(F)(F)F)cc4)cc[c]2[Ge]3([c]2ccccc2)[c]2ccccc2)cc1 [16Ge] | – | – | – | – | – | – | – | – | – | – | shift of absorbance and emission compared to related 2,7-disubstituted derivatives ([5]; 3,6-disubstituted versus 2,7-disubstituted): significant blue-shift; absorption maximum ([5]; CH2Cl2 solution): 288 nm; emission maximum ([5]; CH2Cl2 solution): 352 nm; emission from the solid-state ([5]; solid-state): 393 nm
3 | COc1cc2c(cc1C#Cc1ccc(C)cc1)[Si](c1ccccc1)(c1ccccc1)c1cc(C#Cc3ccc(C)cc3)c(OC)cc1-2 [4Si] | low millimolar concentrations; also recorded: low micromolar concentrations | low micromolar concentrations | dramatic blue shifts and emission enhancements | 0.89 | 0.97 ± 0.04 | 0.56 | 0.93 | 0.86 | 0.55 | 0.24 ± 0.01 | –
4 | COc1cc2[c](cc1C#Cc1ccc(Oc3ccccc3)cc1)[Ge]([c]1ccccc1)([c]1ccccc1)[c]1cc(C#Cc3ccc(Oc4ccccc4)cc3)c(OC)cc1-2 [6Ge] | – | – | – | – | – | – | – | – | – | – | solid-state quantum yield [8]: 0.81
5 | COc1cc2c(cc1C#Cc1ccc(-c3ccccc3)cc1)[Si](c1ccccc1)(c1ccccc1)c1cc(C#Cc3ccc(-c4ccccc4)cc3)c(OC)cc1-2 [7Si] | low millimolar concentrations; also recorded: low micromolar concentrations; also recorded: least soluble | low micromolar concentrations | – | 0.82 | 0.94 ± 0.05 | 0.73 | 0.93 | 0.32 | 0.88 ± 0.05 | 0.11 ± 0.01 | –
6 | COc1ccc2cc(C#Cc3c[c]4c(cc3OC)-c3cc(OC)c(C#Cc5ccc6cc(OC)ccc6c5)c[c]3[Ge]4([c]3ccccc3)[c]3ccccc3)ccc2c1 [8Ge] | low millimolar concentrations; also recorded: low micromolar concentrations | low micromolar concentrations | – | 0.75 | 0.85 ± 0.06 | 0.47 | 0.99 | 0.93 | 0.30 | 0.094 ± 0.01 | –
7 | COc1cc2c(cc1C#Cc1cccc(F)c1)[Si](c1ccccc1)(c1ccccc1)c1cc(C#Cc3cccc(F)c3)c(OC)cc1-2 [meta-fluoro-silafluorene] | – | – | – | – | – | – | – | – | – | – | emission (in words) ([5]; methylene chloride solution and solid state): strong emission
8 | COc1cc2c(cc1C#Cc1cccc(F)c1)[Si](c1ccccc1)(c1ccccc1)c1cc(C#Cc3cccc(F)c3)c(OC)cc1-2 [3Si] | – | low micromolar concentrations | dramatic blue shifts and emission enhancements | 0.80 | 1.0 ± 0.04 | 0.49 ± 0.09 | 0.98 | 0.90 ± 0.02 | 0.55 ± 0.03 | 0.34 ± 0.005 | fluorescence inside cells (ExpiCHO cells): observed inside of CHO cells; emission enhancement upon the addition of detergent/membrane mimics (comparison) [4]: comparable
9 | COc1cc2c(cc1C#Cc1ccc(-n3c4ccccc4c4ccccc43)cc1)[Si](c1ccccc1)(c1ccccc1)c1cc(C#Cc3ccc(-n4c5ccccc5c5ccccc54)cc3)c(OC)cc1-2 [11Si] | low millimolar concentrations; also recorded: low micromolar concentrations | low micromolar concentrations | – | – | – | – | – | – | – | – | –
10 | COc1cc2c(cc1C#Cc1cccc3ccc4ccccc4c13)[Si](c1ccccc1)(c1ccccc1)c1cc(C#Cc3cccc4ccc5ccccc5c34)c(OC)cc1-2 [9Si, 2,7-bis(4-ethynylphenanthrene)-3,6-dimethoxy-9,9-diphenylsilafluorene] | low millimolar concentrations; also recorded: low micromolar concentrations | low micromolar concentrations | dramatic blue shifts and emission enhancements | – | – | – | – | – | – | – | solubility in DMSO ([2]; listed as 9.1): least soluble; solubility in aqueous solution ([2]; listed as 2,7-bis-alkynyl(phenanthrene)silafluorene): low micromolar concentration; change of fluorescence emission upon addition of DNA [9]: decrease in fluorescence emission; staining pattern in cells [3]: either localizing onto an intracellular structure or self-aggregating within the cell; emission enhancement upon the addition of detergent/membrane mimics (comparison) [4]: greatest emission enhancement
11 | COc1cc2[c](cc1C#Cc1ccc(C(C)(C)C)cc1)[Ge]([c]1ccccc1)([c]1ccccc1)[c]1cc(C#Cc3ccc(C(C)(C)C)cc3)c(OC)cc1-2 [5Ge] | – | – | – | – | – | – | – | – | – | – | solid-state quantum yield [8]: 0.92
